Source: patent US12622448B2 (Givaudan SA, priority 2019, dated 2026)

Tests used:
[1] = Expert taster comparison with and without Amadori compound, ice cream; settings: 10 ppb; base: 14.31% heavy whipping cream, 77.60% whole milk, 8% sucrose, 0.009% vanillin; expert tasters (5-7)
Procedure: (§1) The following formulations were prepared with and without Amadori compound and tasted by expert tasters (5-7) and compared. The Amadori compound was dosed in the consumable with no additional heating required.

[2] = Expert taster comparison with and without Amadori compound, strawberry flavored yoghurt; settings: base: 1.7% fat, 4% sugar, strawberry flavor 0.1%, expert tasters (5-7)
Procedure: as §1
Strawberry Flavored Yoghurt

[3] = Expert taster comparison with and without Amadori compound, plain low fat yoghurt; settings: base: 1.5% fat, 5% sugar, expert tasters (5-7)
Procedure: as §1

[4] = Expert taster comparison with and without Amadori compound, almond milk; settings: 2 ppb; base: commercially available sweetened vanilla almond milk; expert tasters (5-7)
Procedure: as §1

[5] = Expert taster comparison with and without Amadori compound, cheese sauce; settings: 10 ppm, expert tasters (5-7)
Procedure: as §1
Base: 33.46% Maltodextrin 10DE; 29.00% Starch Ultrasphere 2000; 10.00% Cheddar Cheese (white); 9.00% non-fat milk powder; 6.20% Whey; 5.00% canola shortening powder; 4.25% salt, 40 mesh; 0.35% yeast extract powder; 0.10% citric acid; 0.10% lactic acid; 2.54% cheese flavor.

[6] = Expert taster comparison with and without Amadori compound, chocolate flavored milk; settings: 5% sugar, 0.05% carrageenan, expert tasters (5-7)
Procedure: as §1

[7] = Expert taster comparison with and without Amadori compound, vanilla flavored milk; settings: expert tasters (5-7)
Procedure: as §1

[8] = Expert taster comparison with and without Amadori compound, cream filling; settings: 10 ppb; base: 66.4% sucrose, 32% palm oil, 0.2% salt, 0.4% vanilla extract, 1% water; expert tasters (5-7)
Procedure: as §1

O=C(O)C1CCCN1CC1(O)OCC(O)C(O)C1O (centres unmarked)
taste/mouthfeel compared with base [1]: more creamy, sweeter, slightly more body and mouth round effect, slightly more milk fat taste | taste/mouthfeel compared with base ([2]; 1 ppb): hardly any effect noticed | taste/mouthfeel compared with base ([2]; 10 ppb): sweeter, more creamy, richer mouthfeel, more fruity | taste/mouthfeel compared with base ([3]; 5 ppm): less sour, sweeter, creamy | taste/mouthfeel compared with base ([3]; 10 ppm): increase upfront sweet, less sour | taste/mouthfeel compared with base ([3]; 25 ppm): metallic linger, increase overall and upfront sweet | taste/mouthfeel compared with base [4]: more creamy, stronger vanilla flavor, more body, more creamy mouthfeel; sweeter and more salty | taste/mouthfeel compared with base [5]: denser, cheesier, smooth, saltier, creamier mouthfeel, fresher dairy note, rich, slight metallic and astringent | taste/mouthfeel compared with base ([6]; 0.1 ppb, base: 2% milk fat, 2% cocoa powder): creamy, full, richer chocolate, slight waxy, more cocoa impact | taste/mouthfeel compared with base ([6]; 1 ppb, base: 2% milk fat, 2% cocoa powder): more chocolate linger, more chocolate, more complex, full mouthfeel, sweeter impression, thicker, waxy, slight tingle | taste/mouthfeel compared with base ([6]; 10 ppm, base: 2% fat milk, 20/cocoa powder): more rich, more body, more real chocolate profile, slight increase in bitterness | taste/mouthfeel compared with base ([7]; 0.1 ppb, base: 2% milk fat, 4% sugar, 0.2% vanilla extract): sweeter linger, more powdery, more fatty body, full and creamy, more dairy impact, creamier mouthfeel, slight waxy mouthfeel | taste/mouthfeel compared with base ([7]; 1 ppb, base: 2% milk fat, 4% sugar, 0.2% vanilla extract): sweeter, increase fullness, creamier mouthfeel, more dairy, slight waxy mouthfeel | taste/mouthfeel compared with base ([7]; 20 ppm, base: half full milk, 5% sugar, 0.1% vanillin): slightly fuller, richer than base, fuller like fat, sweeter | taste/mouthfeel compared with base ([7]; δ ppm, base: 2% fat milk, 4% sugar, 0.15% vanilla flavor): sweeter, more rich creamy, slightly sweeter, juicy, slight metallic and mouth drying | taste/mouthfeel compared with base [8]: more fatty and creamy, sweeter and more salty, more buttery profile

O=C(O)[C@H](Cc1c[nH]cn1)NCC(=O)[C@@H](O)[C@H](O)[C@H](O)CO [Fru-His, N-(1-deoxy-D-fructose-1-yl)-L-histidine]
taste/mouthfeel compared with base [5]: more cheesy, slight acidic, aged, meaty, tingling, chalky, increased mouthfeel, creamier

CC[C@H](C)[C@H](NCC(=O)[C@@H](O)[C@H](O)[C@H](O)CO)C(=O)O [Fru-Ileu, N-(1-deoxy-D-fructose-1-yl)-L-isoleucine]
taste/mouthfeel compared with base [5]: slight acidic, bitter, creamier, increased saltiness

CSCC[C@H](NCC(=O)[C@@H](O)[C@H](O)[C@H](O)CO)C(=O)O [Fru-Met, N-(1-deoxy-D-fructose-1-yl)-L-methionine]
taste/mouthfeel compared with base [5]: more rich, cheesy, umami, astringent, sharper cheese notes, salty

O=C(O)C(CO)NCC1(O)OCC(O)C(O)C1O (centres unmarked) [Fru-Ser]
taste/mouthfeel compared with base [5]: cheesy, creamy, rich, tingling, metallic, thick, smooth
